Laboratory results: patent US6518279B2, “Cyclopentanone dihydropyridine compounds useful as potassium channel openers” (Abbott Laboratories, priority 1999, dated 2003)
Converted amounts (≈) assume the structure as drawn. Like-named read-outs stand apart in the source and are kept apart here.

Key:
[1] = Aqueous solubility, 50 mM NaH2PO4 buffers, reverse-phase HPLC; type: physicochemical; details: aqueous buffer, thermodynamic from solid, shaking 60 hours, room temperature
Method: Aqueous solubilities were determined by shaking 60 hours at room temperature in 50 mM NaH2PO4 buffers at pH's 6.5 and 7.4. Assays were performed using reverse-phase HPLC. The solubilities are expressed in nanomoles per milliliter in Table 4.

[2] = test system: guinea-pig urinary bladder (GPB) cells; assay: Membrane hyperpolarization (MHP) assay, potassium channel opening activity, DiBAC(4)3 / FLIPR; type: cell-based; details: Cavia porcellus; for Emax: maximal steady-state hyperpolarization in GPB cells, relative to 10 μM P1075 (100%), read-out: Maximal Response (% P1075); for EC50: membrane hyperpolarization in GPB cells
Method: Compounds were evaluated for potassium channel opening activity using primary cultured guinea-pig urinary bladder (GPB) cells.
For the preparation of urinary bladder smooth muscle cells, urinary bladders were removed from male guinea-pigs (Hartley, Charles River, Wilmington, Mass.) weighing 300-400 g and placed in ice-cold Ca^2+-free Krebs solution (Composition, mM: KCl, 2.7; KH2PO4, 1.5; NaCl, 75; Na2HPO4, 9.6; Na2HPO4·7H2O, 8; MgSO4, 2; glucose, 5; HEPES, 10; pH 7.4). Cells were isolated by enzymatic dissociation as previously described with minor modifications (Klockner, U. and Isenberg, G., Pflugers Arch. (1985), 405, 329-339), hereby incorporated by reference. The bladder was cut into small sections and incubated in 5 mL of the Kreb's solution containing 1 mg/mL collagenase (Sigma, St. Louis, Mo.) and 0.2 mg/mL pronase (Calbiochem, La Jolla, Calif.) with continuous stirring in a cell incubator for 30 minutes. The mixture was then centrifuged at 1300×g for 5 minutes, and the pellet resuspended in Dulbecco's PBS (GIBCO, Gaithersburg, Md.) and recentrifuged to remove residual enzyme. The cell pellet was resuspended in 5 mL growth media (composition: Dulbecco's modified Eagle's medium supplemented with 10% fetal bovine serum, 100 units/mL penicillin, 100 units/mL streptomycin and […] amphotericin B) and further dissociated by pipetting the suspension through a flame-polished Pasteur pipette and passing it through a polypropylene mesh membrane (Spectrum, Houston, Tex.). The cell density was adjusted to 100,000 cells/mL by resuspension in growth media. Cells were plated in clear-bottomed black 96-well plates (Packard) for membrane potential studies at a density of 20,000 cells/well and maintained in a cell incubator with 90% air: 10% CO2 until confluent. Cells were confirmed to be of smooth muscle type by cytoskeletal staining using a monoclonal mouse anti human-α-smooth muscle actin (Biomeda, Foster City, Calif.)
Functional activity at potassium channels was measured by evaluating changes in membrane potential using the bis-oxonol dye DiBAC(4)3 (Molecular Probes) in a 96-well cell-based kinetic assay system, Fluorescent Imaging Plate Reader (FLIPR) (K. S. Schroeder et al., J. Biomed. Screen., v. 1 pp. 75-81 (1996)), hereby incorporated by reference. DiBAC(4)3 is an anionic potentiometric probe which partitions between cells and extracellular solution in a membrane potential-dependent manner. With increasing membrane potential (for example, K^+ depolarization), the probe further partitions into the cell; this is measured as an increase in fluorescence due to dye interaction with intracellular lipids and proteins. Conversely, decreasing membrane potential (hyperpolarization by potassium channel openers) evokes a decrease in fluorescence.
Confluent guinea-pig urinary bladder cells cultured in black clear-bottomed 96-well plates were rinsed twice with […] assay buffer (composition, mM: HEPES, 20; NaCl, 120; KCl, 2; CaCl2, 2; MgCl2, 1; glucose, 5; pH 7.4 at 25° C.) containing 5 μM DiBAC(4)3 and incubated with […] of the buffer in a cell incubator for 30 minutes at 37° C. to ensure dye distribution across the membrane. After recording the baseline fluorescence for 5 minutes, the reference or test compounds, prepared at 10 times the concentration in the assay buffer, were added directly to the wells. Changes in fluorescence were monitored for an additional 25 minutes. Hyperpolarization responses were corrected for any background noise and were normalized to the response observed with 10 μM of the reference compound P1075 (assigned as 100%), a potent opener of smooth muscle KATP channels (Quast et al., Mol. Pharmacol., v. 43 pp. 474-481 (1993)), hereby incorporated by reference.
Routinely, five concentrations of P1075 or test compounds (log or half-log dilutions) were evaluated and the maximal steady-state hyperpolarization values (expressed as % relative to P1075) plotted as a function of concentration. […]

[3] = test system: Landrace pig bladder strips; assay: Functional potassium channel opening activity in isolated bladder strips (field-stimulated twitch); details: for Index: ED50 of P1075 divided by ED50 of test agonist in a given tissue, averaged; for EC50: Sus scrofa, negative logarithm of ED50, Landrace pig bladder strips, read-out: pD2 (converted); for Efficacy (% P1075): maximal efficacy on the stimulated twitch, Landrace pig bladder strips
Method: Compounds were evaluated for functional potassium channel opening activity using tissue strips obtained from Landrace pig bladders.
Landrace pig bladders were obtained from female Landrace pigs of 9-30 kg. Landrace pigs were euthanized with an intraperitoneal injection of pentobarbital solution, Somlethal®, J. A. Webster Inc., Sterling Mass. The entire bladder was removed and immediately placed into Krebs Ringer bicarbonate solution (composition, mM: NaCl, 120; NaHCO3, 20; dextrose, 11; KCl, 4.7; CaCl2, 2.5; MgSO4, 1.5; KH2PO4, 1.2; K2EDTA, 0.01, equilibrated with 5% CO2/95% O2 pH 7.4 at 37° C.). Propranolol (0.004 mM) was included in all of the assays to block β-adrenoceptors. The trigonal and dome portions were discarded. Strips 3-5 mm wide and 20 mm long were prepared from the remaining tissue cut in a circular fashion. The mucosal layer was removed. One end was fixed to a stationary glass rod and the other to a Grass FT03 transducer at a basal preload of 1.0 gram. Two parallel platinum electrodes were included in the stationary glass rod to provide field stimulation of 0.05 Hz, 0.5 milli-seconds at 20 volts. This low frequency stimulation produced a stable twitch response of 100-500 centigrams. Tissues were allowed to equilibrate for at least 60 minutes and primed with 80 mM KCl. A control concentration response curve (cumulative) was generated for each tissue using the potassium channel opener P1075 as the control agonist. […] After a 60 minute rinsing period, a concentration response curve (cumulative) was generated for the test agonist in the same fashion as that used for the control agonist P1075. The maximal efficacy of each compounds (expressed as % relative to P1075) is reported. The amount of agent necessary to cause 50% of the agent's maximal response (ED50) was calculated using “ALLFIT” (DeLean et al., Am. J. Physiol. 235, E97 (1980)), hereby incorporated by reference, and agonist potencies were expressed as pD2 (the negative logarithm). Agonist potencies were also expressed as an index relative to P1075. The index was calculated by dividing the ED50 for P1075 by the ED50 for the test agonist in a given tissue. Each tissue was used for only one test agonist, and the indices obtained from each tissue were averaged to provide an average index of potency.

bladder contractions = assay: In-vivo bladder efficacy protocol (isovolumetric contractions model); set-up: species or system rat; details: dose reducing area under the curve of bladder contractions by 30%, iv, anesthetized male CD rats
Description: In-vivo bladder efficacy protocol (isovolumetric contractions model)
Male CD rats (400-450 g) were anesthetized with urethane (0.6 g/kg ip+0.6 g/kg sc). The left femoral artery and vein were cannulated with polyethylene (PE-50) tubing for the measurement of arterial pressure and test compound administration respectively. A third polyethylene catheter (PE-60) was inserted 3-4 mm into the apex of the bladder dome and secured using a 5-0 silk purse string suture. The bladder was emptied via this catheter and additionally by applying slight manual pressure on the lower abdomen. The urinary catheter was connected using a Y-tube connector to both a pressure transducer and a syringe pump. […] After the contractions stabilized to a consistent pattern, bladder pressure and arterial pressure were monitored for 20 minutes before and after a dose of the vehicle (equal parts of β-cyclodextrin stock solution (100 g β-cyclodextrin dissolved in 200 ml) and sterile water) alone. […] Mean arterial pressure and area under the curve of the bladder contractions were determined from the respective waveforms using a Modular Instruments, Inc. computerized data acquisition system and averaged over the last ten minutes of each twenty minute period. […]
Example 3, of the present invention (Table 3, FIG. 1), was dosed at 0.01, 0.1 and 1 μmol/kg. The AUC ED30 for Example 3 was determined to be 0.1 μmol/kg.

[4] = pH 6.5, 50 mM NaH2PO4 buffer, read-out: Aqueous solubility pH 6.5
[5] = pH 7.4, 50 mM NaH2PO4 buffer, read-out: Aqueous solubility pH 7.4

solubility at 60 h [1, 4] | solubility at 60 h [1, 5] | EC50 [2] | EC50 [3] | melting point | Structure (SMILES) | Emax [2] | Index [3] | Efficacy (% P1075) [3] | AUC ED30 (bladder contractions) | Effect on stimulated twitch ([3]; 10^−9 to 10^−5 M, cumulative, dose dependent)
205 µM (≈ 74.3 µg/mL) | 227 µM (≈ 82.2 µg/mL) | 71 nM | 158 nM |  | O=C1CCC2=C1C(c1ccc(F)c(Br)c1)C1=C(CCC1=O)N2 [Example 1, 8-(3-Bromo-4-fluorophenyl)-2,3,4,5,6,8-hexahydrodicyclopenta[b,e]pyridine-1,7-dione] | 102% | 0.48 | 98 % P1075 |  | 
1300 µM (≈ 377 µg/mL) | 1290 µM (≈ 375 µg/mL) | 5300 nM | 6310 nM |  | N#Cc1cccc(C2C3=C(CCC3=O)NC3=C2C(=O)CC3)c1 [Example 2, 8-(3-Cyanophenyl)-2,3,4,5,6,8-hexahydrodicyclopenta[b,e]pyridine-1,7-dione] | 65% | 0.017 | 96 % P1075 |  | 
129 µM (≈ 44.5 µg/mL) | 129 µM (≈ 44.5 µg/mL) | 53 nM | 251 nM |  | O=C1CCC2=C1C(c1ccc(Cl)c([N+](=O)[O-])c1)C1=C(CCC1=O)N2 [Example 3, 8-(4-Chloro-3-nitrophenyl)-2,3,4,5,6,8-hexahydrodicyclopenta[b,e]pyridine-1,7-dione] | 113% | 0.35 | 98 % P1075 | 0.1 µmol/kg | 
158 µM (≈ 49 µg/mL) | 164 µM (≈ 50.9 µg/mL) | 340 nM |  |  | O=C1CCC2=C1C(c1cccc([N+](=O)[O-])c1)C1=C(CCC1=O)N2 [Example 4, 8-(3-Nitrophenyl)-2,3,4,5,6,8-hexahydrodicyclopenta[b,e]pyridine-1,7-dione] | 123% |  |  |  | 
 |  | 140 nM |  |  | O=C1CCC2=C1C(c1ccc(F)c(Cl)c1)C1=C(CCC1=O)N2 [Example 5, 8-(3-Chloro-4-fluorophenyl)-2,3,4,5,6,8-hexahydrodicyclopenta[b,e]pyridine-1,7-dione] | 72% |  |  |  | 
 |  | 100 nM |  |  | O=C1CCC2=C1C(c1ccc(Cl)c(Cl)c1)C1=C(CCC1=O)N2 [Example 6, 8-(3,4-Dichlorophenyl)-2,3,4,5,6,8-hexahydrodicyclopenta[b,e]pyridine-1,7-dione] | 94% |  |  |  | 
 |  | 130 nM |  | 272 to 273 °C | O=C1CCC2=C1C(c1ccc3nonc3c1)C1=C(CCC1=O)N2 [Example 7, 8-(2,1,3-benzoxadiazol-5-yl)-2,3,4,5,6,8-hexahydrodicyclopenta[b,e]pyridine-1,7-dione] | 98% |  |  |  | 
 |  | 13 nM |  |  | O=C1CCC2=C1C(c1ccc(F)c(I)c1)C1=C(CCC1=O)N2 [Example 8, 8-(3-Iodo-4-fluorophenyl)-2,3,4,5,6,8-hexahydrodicyclopenta[b,e]pyridine-1,7-dione] | 93% |  |  |  | 
 |  | 63 nM |  |  | O=C1C=CC2=C1C(c1ccc(F)c(Br)c1)C1=C(CCCC1=O)N2 (centres unmarked) [Example 9, 9-(3-bromo-4-fluorophenyl)-5,6,7,9-tetrahydro-1H-cyclopenta[b]quinoline-1,8(4H)-dione] | 100% |  |  |  | 
 |  | 2680 nM |  | 211 to 214 °C | CC1=C(C(=O)O)C(c2ccc(F)c(Br)c2)C2=C(CCC2=O)N1 (centres unmarked) [Example 10, 4-(3-bromo-4-fluorophenyl)-2-methyl-5-oxo-4,5,6,7-tetrahydro-1H-cyclopenta[b]pyridine-3-carboxylic acid] | 104% |  |  |  | 
 |  |  |  |  | CCC(C)(C)N=C(NC#N)Nc1cccnc1 [Example P1075, reference compound] |  |  |  |  | completely eliminated the stimulated twitch
